Measured values taken from patent publication US20050037989A1, “Inhibition of gene function by delivery of polynucleotide-based gene expression inhibitors to mammalian cells in vivo” (priority 2001, published 2005).
d = 2'-deoxy (DNA); r = 2'-OH (RNA)

Experiments:
[1] = system: Luc+ expression; assay: In vivo delivery of siRNA to mouse liver cells using TransIT In Vivo, dual luciferase; parameters: species or system ICR mice; details: for % inhibition of Luc+ expression: normalized to no siRNA control
Protocol: In vivo delivery of siRNA to mouse liver cells using TransIT™ In Vivo. 10 μg pGL3 control and 1 μg pRL-SV40 were complexed with 11 μl TransIT™ In Vivo in 2.5 ml total volume according the manufacturer's recommendation (Mirus Corporation, Madison, Wis.). For siRNA delivery, 10 μg pGL3 control, 1 μg pRL-SV40, and either 5 μg siRNA-Luc+ or 5 μg control siRNA were complexed with 16 μl TransIT™ In vivo in 2.5 ml total volume. Particles were injected over ˜7 s into the tail vein of 25-30 g ICR mice as described in Example 1. One day after injection, the livers were harvested and homogenized as described in Example 1. Luc+ and Renilla Luc activities were assayed using the Dual Luciferase Reporter Assay System (Promega).

[2] = system: Luc+ expression; assay: Dual luciferase in liver after bile duct delivery of plasmids and siRNA; assay type: in vivo, mice; details: 5.0 μg siRNA, bile duct injection, one day, compared to control siRNA-ori
Protocol: Inhibition of Luciferase expression by siRNA is gene specific and siRNA specific in liver after bile duct delivery in vivo. 10 μg pGL3 control and 1 μg pRL-SV40 with 5.0 μg siRNA-luc+ or 5.0 siRNA-ori were injected into the bile duct of mice. A total volume of 1 ml in Ringer's buffer was delivered at 6 ml/min. […] One day after injection, the liver was harvested and homogenized as described in Example 1. Luc+ and Renilla Luc activities were assayed using the Dual Luciferase Reporter Assay System (Promega). Ratios of Luc+ to Renilla Luc were normalized to the siRNA-ori control. siRNA-Luc+ inhibited Luc+ expression in liver by 88% compared to the control siRNA-ori.

[3] = system: Luc+ expression; assay: Dual luciferase in muscle after iliac artery delivery of plasmids and siRNA; assay type: in vivo, rats; details: 5.0 μg siRNA, four days, compared to control siRNA-ori
Protocol: Inhibition of Luciferase expression by siRNA is gene specific and siRNA specific in muscle in vivo after arterial delivery. 10 μg pGL3 control and 1 μg pRL-SV40 with 5.0 μg siRNA-luc+ or 5.0 siRNA-ori were injected into iliac artery of rats under increased pressure. Specifically, animals were anesthetized and the surgical field shaved and prepped with an antiseptic. The animals were placed on a heating pad to prevent loss of body heat during the surgical procedure. A midline abdominal incision will be made after which skin flaps were folded away and held with clamps to expose the target area. A moist gauze was applied to prevent excessive drying of internal organs. Intestines were moved to visualize the iliac veins and arteries. Microvessel clips were placed on the external iliac, caudal epigastric, internal iliac, deferent duct, and gluteal arteries and veins to block both outflow and inflow of the blood to the leg. An efflux enhancer solution (e.g., 0.5 mg papaverine in 3 ml saline) was injected into the external iliac artery though a 25 g needle, followed by the plasmid DNA and siRNA containing solution (in 10 ml saline) 1-10 minutes later. The solution was injected in approximately 10 seconds. The microvessel clips were removed 2 minutes after the injection and bleeding was controlled with pressure and gel foam. The abdominal muscles and skin were closed with 4-0 dexon suture. […]

[4] = system: luc+ gene; assay: Inhibition of luciferase gene expression by siRNA in liver cells in vivo (pMIR48 co-injected, tail vein); parameters: species or system ICR mice; details: liver one day after injection
Protocol: Plasmid pMIR48 (10 μg), containing the luc+ coding region (Promega Corp.) and a chimeric intron downstream of the cytomegalovirus major immediate-early enhancer/promoter, was mixed with 0.5 or 5 μg siRNA-luc+, diluted in 1-3 ml Ringer's solution (147 mM NaCl, 4 mM KCl, 1.13 mM CaCl2) and injected into the tail vein of ICR mice over […]. One day after injection, the livers were harvested and homogenized in lysis buffer (0.1% Triton X-100, 0.1 M K-phosphate, 1 mM DTT, pH 7.8). Insoluble material was cleared by centrifugation. 10 μl of the cellular extract or extract diluted 10× was analyzed for luciferase activity using the Enhanced Luciferase Assay kit (Mirus).

[5] = 5 μg siRNA with TransIT In Vivo, liver, one day

## siRNA-luc+: annealed oligomers SEQ ID 4 and SEQ ID 5 containing luc+ coding sequence, positions 155-173 of the luc+ reading frame (chain 1 CUUACGCUGAGUACUUCGATT; chain 2 UCGAAGUACUCAGCGUAAGTT; sugars from the 5' end r19 d2, backbone not given here; listed as Photinus pyralis)
[1]; [5]
  Luciferase expression (RLUs): 853332 RLUs
  Renilla expression (RLUs): 4124726 RLUs
[1]; 5 μg siRNA with TransIT In Vivo
  % inhibition of Luc+ expression: 96%
[1]; 5 μg siRNA with TransIT In Vivo, listed as siRNA-Luc+
  % inhibition of Luc+ expression: 96.0%
[1]; Luc+ to Renilla Luc ratio, liver, one day
  relative LUC+ expression: 0.2069
[2]
  inhibition of Luc+ expression in liver: 88%
[3]
  inhibition of Luc+ expression in gastrocnemius: 92%
  inhibition of Luc+ expression in quadriceps: 85%
[4]; 0.5 μg siRNA co-injected with 10 μg pMIR48, tail vein, vs 10 μg pMIR48 alone
  inhibition of Luc+ activity: 69%
[4]; 5 μg siRNA co-injected with 10 μg pMIR48, tail vein
  inhibition of Luc+ activity: 93%
